Laboratory results published in patent publication US8192962B2, “Processes for detecting toxic substances” (Daikin Industries, Ltd., priority 2001, dated 2012).

Test system: Mitochondria-located protein genes
Assay: DNA chip mRNA expression in yeast, mitochondria-located protein genes (Table 2)
Assay type: cell-based, Saccharomyces cerevisiae S288C
Settings: cells incubated two hours with the chemical substance
Procedure, shortened: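 Untreated cultures served as reference for log-phase S288C yeast given a growth-inhibiting, non-lethal toxicant dose for 2 h at 25° C. in YPD. Gene expression was measured on a whole-genome DNA chip from Cy3/Cy5-labeled cDNA.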

Oc1cc(Cl)c(Cl)cc1Cl [(6), 2,4,5-trichlorophenol]
The level of expressed mRNA in the presence of chemical substance/The level of expressed mRNA in the absence of chemical substance (yeast gene YAL039C): 0.8 | The level of expressed mRNA in the presence of chemical substance/The level of expressed mRNA in the absence of chemical substance (yeast gene YBL022C): 1.2 | The level of expressed mRNA in the presence of chemical substance/The level of expressed mRNA in the absence of chemical substance (yeast gene YBL030C): 1.1 | The level of expressed mRNA in the presence of chemical substance/The level of expressed mRNA in the absence of chemical substance (yeast gene YBL038W): 0.7 | The level of expressed mRNA in the presence of chemical substance/The level of expressed mRNA in the absence of chemical substance (yeast gene YBL099W): 0.9 | The level of expressed mRNA in the presence of chemical substance/The level of expressed mRNA in the absence of chemical substance (yeast gene YBR003W): 1.2 | The level of expressed mRNA in the presence of chemical substance/The level of expressed mRNA in the absence of chemical substance (yeast gene YBR044C): 1.0 | The level of expressed mRNA in the presence of chemical substance/The level of expressed mRNA in the absence of chemical substance (yeast gene YBR091C): 0.7 | The level of expressed mRNA in the presence of chemical substance/The level of expressed mRNA in the absence of chemical substance (yeast gene YBR122C): 1.1 | The level of expressed mRNA in the presence of chemical substance/The level of expressed mRNA in the absence of chemical substance (yeast gene YBR185C): 1.2 | The level of expressed mRNA in the presence of chemical substance/The level of expressed mRNA in the absence of chemical substance (yeast gene YBR221C): 1.7 | The level of expressed mRNA in the presence of chemical substance/The level of expressed mRNA in the absence of chemical substance (yeast gene YBR251W): 2.0 | The level of expressed mRNA in the presence of chemical substance/The level of expressed mRNA in the absence of chemical substance (yeast gene YBR282W): 1.4 | The level of expressed mRNA in the presence of chemical substance/The level of expressed mRNA in the absence of chemical substance (yeast gene YCL057W): 1.8 | The level of expressed mRNA in the presence of chemical substance/The level of expressed mRNA in the absence of chemical substance (yeast gene YCR046C): 0.8 | The level of expressed mRNA in the presence of chemical substance/The level of expressed mRNA in the absence of chemical substance (yeast gene YCR083W): 2.4 | The level of expressed mRNA in the presence of chemical substance/The level of expressed mRNA in the absence of chemical substance (yeast gene YDL067C): 0.9 | The level of expressed mRNA in the presence of chemical substance/The level of expressed mRNA in the absence of chemical substance (yeast gene YDL181W): 1.2 | The level of expressed mRNA in the presence of chemical substance/The level of expressed mRNA in the absence of chemical substance (yeast gene YDL198C): 0.8 | The level of expressed mRNA in the presence of chemical substance/The level of expressed mRNA in the absence of chemical substance (yeast gene YDR079W): 1.7 | The level of expressed mRNA in the presence of chemical substance/The level of expressed mRNA in the absence of chemical substance (yeast gene YDR178W): 2.1 | The level of expressed mRNA in the presence of chemical substance/The level of expressed mRNA in the absence of chemical substance (yeast gene YDR231C): 2.2 | The level of expressed mRNA in the presence of chemical substance/The level of expressed mRNA in the absence of chemical substance (yeast gene YDR258C): 2.4 | The level of expressed mRNA in the presence of chemical substance/The level of expressed mRNA in the absence of chemical substance (yeast gene YDR298C): 1.2 | The level of expressed mRNA in the presence of chemical substance/The level of expressed mRNA in the absence of chemical substance (yeast gene YDR347W): 1.2 | The level of expressed mRNA in the presence of chemical substance/The level of expressed mRNA in the absence of chemical substance (yeast gene YDR377W): 1.3 | The level of expressed mRNA in the presence of chemical substance/The level of expressed mRNA in the absence of chemical substance (yeast gene YDR529C): 0.8 | The level of expressed mRNA in the presence of chemical substance/The level of expressed mRNA in the absence of chemical substance (yeast gene YEL024W): 1.1 | The level of expressed mRNA in the presence of chemical substance/The level of expressed mRNA in the absence of chemical substance (yeast gene YEL039C): 1.5 | The level of expressed mRNA in the presence of chemical substance/The level of expressed mRNA in the absence of chemical substance (yeast gene YER178W): 2.5 | The level of expressed mRNA in the presence of chemical substance/The level of expressed mRNA in the absence of chemical substance (yeast gene YFL016C): 1.3 | The level of expressed mRNA in the presence of chemical substance/The level of expressed mRNA in the absence of chemical substance (yeast gene YGL018C): 0.4 | The level of expressed mRNA in the presence of chemical substance/The level of expressed mRNA in the absence of chemical substance (yeast gene YGL187C): 1.1 | The level of expressed mRNA in the presence of chemical substance/The level of expressed mRNA in the absence of chemical substance (yeast gene YGL191W): 1.6 | The level of expressed mRNA in the presence of chemical substance/The level of expressed mRNA in the absence of chemical substance (yeast gene YGR008C): 2.9 | The level of expressed mRNA in the presence of chemical substance/The level of expressed mRNA in the absence of chemical substance (yeast gene YGR028W): 1.5 | The level of expressed mRNA in the presence of chemical substance/The level of expressed mRNA in the absence of chemical substance (yeast gene YGR062C): 0.9 | The level of expressed mRNA in the presence of chemical substance/The level of expressed mRNA in the absence of chemical substance (yeast gene YGR076C): 1.2 | The level of expressed mRNA in the presence of chemical substance/The level of expressed mRNA in the absence of chemical substance (yeast gene YGR082W): 1.1 | The level of expressed mRNA in the presence of chemical substance/The level of expressed mRNA in the absence of chemical substance (yeast gene YGR174C): 1.4 | The level of expressed mRNA in the presence of chemical substance/The level of expressed mRNA in the absence of chemical substance (yeast gene YGR244C): 2.6 | The level of expressed mRNA in the presence of chemical substance/The level of expressed mRNA in the absence of chemical substance (yeast gene YHR008C): 1.0 | The level of expressed mRNA in the presence of chemical substance/The level of expressed mRNA in the absence of chemical substance (yeast gene YIL155C): 1.4 | The level of expressed mRNA in the presence of chemical substance/The level of expressed mRNA in the absence of chemical substance (yeast gene YJL096W): 1.0 | The level of expressed mRNA in the presence of chemical substance/The level of expressed mRNA in the absence of chemical substance (yeast gene YJL102W): 1.6 | The level of expressed mRNA in the presence of chemical substance/The level of expressed mRNA in the absence of chemical substance (yeast gene YJL133W): 0.5 | The level of expressed mRNA in the presence of chemical substance/The level of expressed mRNA in the absence of chemical substance (yeast gene YJL166W): 0.7 | The level of expressed mRNA in the presence of chemical substance/The level of expressed mRNA in the absence of chemical substance (yeast gene YJL180C): 1.3 | The level of expressed mRNA in the presence of chemical substance/The level of expressed mRNA in the absence of chemical substance (yeast gene YJR045C): 1.2 | The level of expressed mRNA in the presence of chemical substance/The level of expressed mRNA in the absence of chemical substance (yeast gene YJR077C): 0.9
